Test [1] deals with DU145 (prostate cancer cell). Briefly: Cancer cell proliferation suppressive action, DU145 (WST-1). The note with it: Homo sapiens, read-out: DU145 proliferation inhibitory activity (%). It counts as cell-based. As for the experimental part:
cell line used: DU145 (prostate cancer cell: Institute of Development, Aging and Cancer, Tohoku University, Cell Resource Center for Biomedical Research)
evaluation of scaffolding dependency growth suppressive action:
The cells were plated on a 96 well plate at 5×10^3 cells/well/90 μL, and cultured overnight. The test compound (10 μM) was added and, after culture for 48 hr, a 1:9 mixture of aqueous 1-methoxy-5-methylphenazinium methylsulfate (PMS) solution and 2-(4-iodophenyl)-3-(4-nitrophenyl)-5-(2,4-disulfophenyl)-2H-tetrazolium, monosodium salt (WST-1)/20 mM 4-(2-hydroxyethyl)-1-piperazineethanesulfonic acid (HEPES) solution (DOJIN) was added by 10 μL, and the absorbance was measured at 450 nm 2 hr later. As a control wavelength, 630 nm was used.
On the technique in general: Formazan colour is commonly taken as a measure of viable cells.

The target in test [2] is T1, silkworm recombinant PCA-1 (Homo sapiens, UniProt Q96Q83).
T1 construct: made in house; host or cells: silkworm
T1 sequence (Q96Q83 1-286): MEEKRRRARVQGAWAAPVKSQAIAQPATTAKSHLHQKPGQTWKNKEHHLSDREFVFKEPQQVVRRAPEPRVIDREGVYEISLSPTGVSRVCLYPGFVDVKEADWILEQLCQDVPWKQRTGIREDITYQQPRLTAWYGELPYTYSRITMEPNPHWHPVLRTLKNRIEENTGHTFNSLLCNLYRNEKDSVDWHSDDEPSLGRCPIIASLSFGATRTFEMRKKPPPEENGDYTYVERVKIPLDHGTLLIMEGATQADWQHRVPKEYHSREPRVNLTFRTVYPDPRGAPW
Briefly: Evaluation of PCA-1 inhibitory activity (demethylation of 3-methyl cytosine-containing oligo DNA, real-time PCR). Format: biochemical. The note with it: 37° C., 1 hr; for inhibition at 1 µM: test compound 1 μM; for inhibition at 10 µM: test compound 10 μM. The method, then: To an enzyme reaction solution (50 mM trishydrochloric acid buffer (pH 8.0), 2 mM ascorbic acid, 100 μM oxoglutaric acid, 40 μM ferric sulfate) containing 80 fmol 3-methyl cytosine-containing oligo DNA as a substrate were added a test compound (10 μM, 1 μM) and 4 ng silkworm recombinant PCA-1, and the mixture was incubated at 37° C. for 1 hr. After completion of the reaction, the enzyme reaction solution was 20-fold diluted with water to quench the reaction. Using 2 μL thereof, real-time PCR (Bio-Rad iQ SYBR Green Supermix) was performed in a 20 μL reaction system. The analytical curve was formed using a dilution series of the non-methylated oligoDNA. The primers used were forward primer 24 bases and reverse primer 22 bases. Reaction conditions: 95° C., 10 seconds→40 cycles of 95° C., 5 seconds, 61° C., 30 seconds, and 72° C., 15 seconds→95° C., 1 min→55° C., 1 min→55° C., 10 seconds, after which increased by 0.5° C. to 95° C. for 10 seconds→preserved at 25° C.
The degree of demethylation in the presence or absence of the test compound was compared and the inhibitory activity was evaluated.
Background: Real-time PCR tracks product formation cycle by cycle.

For the next test, the system named is DU145 cell xenograft. Briefly: Antitumor action using prostate cancer xenograft model. Format: in vivo, BALB/c nu/nu mouse. The note with it: subcutaneously administered, suspended in 0.5 w/v % carboxycellulose; tumor volume. The text has this: A prostate cancer xenograft model was produced as shown below.
DU145 cells (4×10^6 cells) were mixed with BD Matrigel Basememt Membrane Matrix High Concentration (Becton, Dickinson and Company), and subcutaneously transplanted to the back of BALB/c nu/nu mouse. After transplantation, the tumor was isolated when it reached a volume of about 200 mm^3, and subcutaneously transplanted into the back of a different BALB/c nu/nu mouse. This operation was repeated three times to generate a tumor derived from DU145 cells that grow stably. A model mouse for the evaluation of the compound was prepared by finely cutting the in vivo passaged tumor into about 10 mm^3, and subcutaneously transplanting same into the back of a BALB/c nu/nu mouse.
The compound of Example 1 was suspended in 0.5 w/v % sterile carboxycellulose (Wako Pure Chemical Industries, Ltd.), and subcutaneously administered to the back. The volume of the tumor was calculated using the formula of (long diameter)×(short diameter)^2×0.5.

Where two headings read alike, the source gives them in different places.

Take `Cc1nn(-c2nc3ccccc3[nH]2)c(O)c1C` [Example 13]: the inhibition at 10 µM in test [1] (DU-145, 48 h) was 22%; in test [2] it was 76%. Moreover, in test [2], the inhibition at 1 µM is 19%.

Regarding `Cc1ccc2[nH]c(-n3nc(C)c(C)c3O)nc2c1` [Example 17], in test [2], the inhibition at 1 µM was determined as 25% and the inhibition at 10 µM was 76%.

`Cc1ccc(-c2ccc3[nH]c(-n4nc(C)c(Cc5ccccc5)c4O)nc3c2)cc1` [Example 40]: in test [2], the inhibition at 1 µM worked out at 21% and the inhibition at 10 µM is 61%.

For the compound `Cc1nn(-c2nc3cc(-c4ccccc4)ccc3[nH]2)c(O)c1Cc1ccccc1` [Example 37], in test [2], the inhibition at 1 µM was 38% and the inhibition at 10 µM was 64%.

On to `Cc1ccc2[nH]c(-n3nc(C)c(Cc4ccc5ccccc5c4)c3O)nc2c1` [Example 11, 3-methyl-1-(5-methyl-1H-benzimidazol-2-yl)-4-(2-naphthylmethyl)-1H-pyrazol-5-ol], for which, in test [2], the inhibition at 1 µM came out at 36% and the inhibition at 10 µM amounted to 82%.

As for `Cc1ccc2[nH]c(-n3nc(C)c(Cc4ccccc4Cl)c3O)nc2c1` [Example 33], in test [2], the inhibition at 1 µM was determined as 54% and the inhibition at 10 µM is 82%.

Take `Cc1nn(-c2nc3ccccc3[nH]2)c(O)c1-c1ccccc1` [Example 18]: in test [2], the inhibition at 1 µM worked out at 27% and the inhibition at 10 µM came out at 74%.

For `COc1ccc(Cc2c(C)nn(-c3nc4ccccc4[nH]3)c2O)cc1` [Example 31], in test [2], the inhibition at 1 µM came to 47% and the inhibition at 10 µM was 85%.

As to `Cc1ccc2[nH]c(-n3nc(C)c(Cc4ccccc4)c3O)nc2c1` [Example 1, 1-(5-methyl-1H-benzimidazol-2-yl)-3-methyl-4-(phenylmethyl)-1H-pyrazol-5-ol], the “antitumor action in a DU145 cell xenograft model (FIG. 1)” value with DU145 cell xenograft is reported as “antitumor action”. For the same compound, the inhibition at 10 µM in test [1] (DU-145, test compound 10 μM, culture for 48 hr) came to 60%. In test [2], the inhibition at 1 µM amounted to 24% and the inhibition at 10 µM is 81%.

As for `Cc1ccc2[nH]c(-n3nc(C)c(Cc4ccc(F)cc4)c3O)nc2c1` [Example 32], in test [2], the inhibition at 1 µM amounted to 49% and the inhibition at 10 µM amounted to 81%.

Take `Cc1nn(-c2nc3ccccc3[nH]2)c(O)c1Cc1ccc2ccccc2c1` [Example 19]: in test [2], the inhibition at 1 µM was determined as 38% and the inhibition at 10 µM amounted to 76%.

As for `Cc1nn(-c2nc3cc(Cl)ccc3[nH]2)c(O)c1Cc1ccccc1` [Example 3, 1-(5-chloro-1H-benzimidazol-2-yl)-3-methyl-4-(phenylmethyl)-1H-pyrazol-5-ol], in test [2], the inhibition at 1 µM is 21% and the inhibition at 10 µM turned out to be 60%.

For the compound `Cc1nn(-c2nc3cc(C(C)(C)C)ccc3[nH]2)c(O)c1Cc1ccccc1` [Example 5, 1-[5-(1,1-dimethylethyl)-1H-benzimidazol-2-yl]-3-methyl-4-(phenylmethyl)-1H-pyrazol-5-ol], in test [2], the inhibition at 1 µM was found to be 50% and the inhibition at 10 µM stood at 91%.

In the case of `CCCCCCc1c(C)nn(-c2nc3cc(C)ccc3[nH]2)c1O` [Example 45], in test [2], the inhibition at 1 µM was 43% and the inhibition at 10 µM amounted to 81%.

Consider `Cc1nn(-c2nc3cc(C(F)(F)F)ccc3[nH]2)c(O)c1Cc1ccccc1` [Example 4, 3-methyl-4-(phenylmethyl)-1-(5-trifluoromethyl-1H-benzimidazol-2-yl)-1H-pyrazol-5-ol], for which, in test [2], the inhibition at 1 µM was 50% and the inhibition at 10 µM was 82%.

Take `Cc1nn(-c2nc3ccccc3[nH]2)c(O)c1Cc1ccc(C(F)(F)F)cc1` [Example 24]: in test [2], the inhibition at 1 µM amounted to 61% and the inhibition at 10 µM is 67%.

As for `Cc1nn(-c2nc3ccccc3[nH]2)c(O)c1Cc1ccccc1` [Example 14], the inhibition at 10 µM in test [1] (DU-145, 48 h) came to 45%; in test [2], 80%. In addition, in test [2], the inhibition at 1 µM was found to be 35%.

As to `Cc1ccc2[nH]c(-n3nc(C)c(CC4CCCCC4)c3O)nc2c1` [Example 46], in test [2], the inhibition at 1 µM is 47% and the inhibition at 10 µM was 81%.

Consider `Cc1ccc2[nH]c(-n3nc(C)c(-c4ccccc4)c3O)nc2c1` [Example 42], for which, in test [2], the inhibition at 1 µM was found to be 37% and the inhibition at 10 µM came to 65%.

As to `Cc1nn(-c2nc3ccccc3[nH]2)c(O)c1Cc1ccc(F)cc1` [Example 25], in test [2], the inhibition at 1 µM was 39% and the inhibition at 10 µM came to 68%.

As for `Cc1nn(-c2nc3cc(-c4ccc(Cl)cc4)ccc3[nH]2)c(O)c1Cc1ccccc1` [Example 35], in test [2], the inhibition at 1 µM is 25% and the inhibition at 10 µM was 77%.

On to `COc1ccc(Cc2c(C)nn(-c3nc4cc(C)ccc4[nH]3)c2O)cc1` [Example 34], for which, in test [2], the inhibition at 1 µM worked out at 49% and the inhibition at 10 µM came out at 80%.

Take `Cc1cc(O)n(-c2nc3ccccc3[nH]2)n1` [Example 15]: in test [2], the inhibition at 1 µM was -1% and the inhibition at 10 µM stood at 76%.

Source of the values: patent US9212169B2, “Benzimidazole derivative and use thereof” (HYOGO COLLEGE OF MEDICINE, priority 2012, dated 2015).
